# Results: ChEMBL document CHEMBL1671749, “blaROB-1 presence on pB1000 in Haemophilus influenzae is widespread, and variable cefaclor resistance is associated with altered penicillin-binding proteins” (2010)
# What was measured:
# Type in all cases: functional
# Haemophilus influenzae [1] = assay: Antibacterial activity against ROB-1 producing ICE- negative Haemophilus influenzae F3 by Etest method
# Haemophilus influenzae [2] = assay: Antibacterial activity against ROB-1 producing ICE- negative Haemophilus influenzae F50 by Etest method
# Haemophilus influenzae [3] = assay: Antibacterial activity against ROB-1 and TEM-1 producing ICE- positive Haemophilus influenzae F48 by Etest method
# Haemophilus influenzae [4] = assay: Antibacterial activity against ROB-1 and TEM-1 producing ICE- positive Haemophilus influenzae F52 by Etest method
# Haemophilus influenzae [5] = assay: Antibacterial activity against ROB-1 producing ICE- negative Haemophilus influenzae H23 by Etest method
# Haemophilus influenzae [6] = assay: Antibacterial activity against ROB-1 producing ICE- negative Haemophilus influenzae H62 by Etest method
# Haemophilus influenzae [7] = assay: Antibacterial activity against ROB-1 producing ICE- positive Haemophilus influenzae F45 harboring D350N, V547I and N569S mutations in PBP3 by Etest method
# Haemophilus influenzae [8] = assay: Antibacterial activity against ROB-1 and TEM-1 producing ICE- positive Haemophilus influenzae F49 harboring D350N, V547I and N569S mutations in PBP3 by Etest method
# Haemophilus influenzae [9] = assay: Antibacterial activity against ROB-1 and TEM-1 producing ICE- positive Haemophilus influenzae F54 harboring V489G, M503R, R517H, V547I and N569S mutations in PBP3 by Etest method
# Haemophilus influenzae [10] = assay: Antibacterial activity against ROB-1 producing ICE- negative Haemophilus influenzae F41 by Etest method
# Haemophilus influenzae [11] = assay: Antibacterial activity against ROB-1 and TEM-1 producing ICE- positive Haemophilus influenzae F47 by Etest method
# Haemophilus influenzae [12] = assay: Antibacterial activity against […] by Etest method
# Haemophilus influenzae [13] = assay: Antibacterial activity against ROB-1 producing ICE- negative Haemophilus influenzae Rd transformant harboring plasmid PB1000 by Etest method
# Haemophilus influenzae [14] = assay: Antibacterial activity against ROB-1 producing ICE- negative Haemophilus influenzae F3 by broth microdilution method
# Haemophilus influenzae [15] = assay: Antibacterial activity against ROB-1 producing ICE- negative Haemophilus influenzae F50 by broth microdilution method
# Haemophilus influenzae [16] = assay: Antibacterial activity against ROB-1 producing ICE- positive Haemophilus influenzae F48 by broth microdilution method
# Haemophilus influenzae [17] = assay: Antibacterial activity against ROB-1 producing ICE- positive Haemophilus influenzae F52 by broth microdilution method
# Haemophilus influenzae [18] = assay: Antibacterial activity against ROB-1 producing ICE- negative Haemophilus influenzae H23 by broth microdilution method
# Haemophilus influenzae [19] = assay: Antibacterial activity against ROB-1 producing ICE- negative Haemophilus influenzae H62 by broth microdilution method
# Haemophilus influenzae [20] = assay: Antibacterial activity against ROB-1 producing ICE- positive Haemophilus influenzae F45 harboring D350N, V547I and N569S mutations in PBP3 by broth microdilution method
# Haemophilus influenzae [21] = assay: Antibacterial activity against ROB-1 producing ICE- positive Haemophilus influenzae F49 harboring D350N, V547I and N569S mutations in PBP3 by broth microdilution method
# Haemophilus influenzae [22] = assay: Antibacterial activity against ROB-1 producing ICE- positive Haemophilus influenzae F54 harboring V489G, M503R, R517H, V547I and N569S mutations in PBP3 by broth microdilution method
# Haemophilus influenzae [23] = assay: Antibacterial activity against ROB-1 producing ICE- negative Haemophilus influenzae F41 by broth microdilution method
# Haemophilus influenzae [24] = assay: Antibacterial activity against ROB-1 producing ICE- positive Haemophilus influenzae F47 by broth microdilution method
# Haemophilus influenzae [25] = assay: Antibacterial activity against […] by broth microdilution method
# Haemophilus influenzae [26] = assay: Antibacterial activity against ROB-1 producing ICE- negative Haemophilus influenzae Rd transformant harboring plasmid PB1000 by broth microdilution method
structure (smiles),measurement,setting,value
N[C@@H](C(=O)N[C@@H]1C(=O)N2C(C(=O)O)=C(Cl)CS[C@H]12)c1ccccc1 [CEFACLOR ANHYDROUS],MIC,Haemophilus influenzae [1],4 µg/mL
same,MIC,Haemophilus influenzae [2],2 µg/mL
same,MIC,Haemophilus influenzae [3],6 µg/mL
same,MIC,Haemophilus influenzae [4],6 µg/mL
same,MIC,Haemophilus influenzae [5],2 µg/mL
same,MIC,Haemophilus influenzae [6],6 µg/mL
same,MIC,Haemophilus influenzae [7],24 µg/mL
same,MIC,Haemophilus influenzae [8],16 µg/mL
same,MIC,Haemophilus influenzae [9],32 µg/mL
same,MIC,Haemophilus influenzae [10],4 µg/mL
same,MIC,Haemophilus influenzae [11],4 µg/mL
same,MIC,Haemophilus influenzae [12],0.5 µg/mL
same,MIC,Haemophilus influenzae [13],4 µg/mL
same,MIC,Haemophilus influenzae [14],16 µg/mL
same,MIC,Haemophilus influenzae [15],16 µg/mL
same,MIC,Haemophilus influenzae [16],16 µg/mL
same,MIC,Haemophilus influenzae [17],16 µg/mL
same,MIC,Haemophilus influenzae [18],16 µg/mL
same,MIC,Haemophilus influenzae [19],32 µg/mL
same,MIC,Haemophilus influenzae [20],64 µg/mL
same,MIC,Haemophilus influenzae [21],64 µg/mL
same,MIC,Haemophilus influenzae [22],64 µg/mL
same,MIC,Haemophilus influenzae [23],32 µg/mL
same,MIC,Haemophilus influenzae [24],32 µg/mL
same,MIC,Haemophilus influenzae [25],1 µg/mL
same,MIC,Haemophilus influenzae [26],32 µg/mL
